Laboratory results as given in patent publication US7498300B2, “CRFR1 selective ligands” (The Salk Institute for Biological Studies, priority 2001, dated 2009).

Legend:
human CRFR1 = biological target: T1, human CRFR1 (Homo sapiens, UniProt P34998); experiment: Competitive binding assay, CHO cells stably expressing human CRFR1, displacement of 125I-(Nle21,Tyr32) ovine CRF
T1 construct: expressed in transfected cells
T1 sequence (P34998 24-415): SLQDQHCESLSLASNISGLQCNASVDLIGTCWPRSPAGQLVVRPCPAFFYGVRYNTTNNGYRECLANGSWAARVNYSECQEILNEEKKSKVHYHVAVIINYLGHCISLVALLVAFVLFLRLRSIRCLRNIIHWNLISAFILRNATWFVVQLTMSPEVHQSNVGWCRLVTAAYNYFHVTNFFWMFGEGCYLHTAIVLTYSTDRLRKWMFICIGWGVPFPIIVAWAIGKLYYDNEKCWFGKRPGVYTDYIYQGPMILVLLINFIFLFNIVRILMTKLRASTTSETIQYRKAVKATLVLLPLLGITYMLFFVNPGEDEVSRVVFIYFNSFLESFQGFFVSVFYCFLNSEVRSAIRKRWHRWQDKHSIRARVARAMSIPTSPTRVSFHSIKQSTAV
Method: Binding affinity is a term used to refer to the strength of interaction between ligand and receptor. […] Ki (inhibitory binding affinity constant) is determined using a “standard” or “tracer” radioactive ligand and thus measures the displacement of the tracer from the receptor or binding protein; it is most properly expressed with reference to such tracer. However, so long as these assays are carefully performed under specific conditions with relatively low concentrations of receptor or the like, the calculated Ki will be substantially the same as its dissociation constant KD. […] It is particularly efficient to test for Ki because only a single tracer need be labelled, e.g. radioiodinated.
Binding assays with cells expressing human CRFR1 are carried out as described in the Chen et al. P.N.A.S., supra. The affinities of test peptides for CRFR1 and CRFR2 stably expressed in CHO cells were determined by competitive displacement of ^125I-(Nle^21, Tyr^32) ovine CRF (for CRFR1) or of [^125I-Tyr^o-]Ucn (for CRFR2) as described.

human CRFR2 = biological target: T2, human CRFR2 (Homo sapiens, UniProt Q13324); experiment: Competitive binding assay, CHO cells stably expressing human CRFR2, displacement of [125I-Tyr0]Ucn
T2 construct: expressed in transfected cells
T2 sequence (Q13324 1-411): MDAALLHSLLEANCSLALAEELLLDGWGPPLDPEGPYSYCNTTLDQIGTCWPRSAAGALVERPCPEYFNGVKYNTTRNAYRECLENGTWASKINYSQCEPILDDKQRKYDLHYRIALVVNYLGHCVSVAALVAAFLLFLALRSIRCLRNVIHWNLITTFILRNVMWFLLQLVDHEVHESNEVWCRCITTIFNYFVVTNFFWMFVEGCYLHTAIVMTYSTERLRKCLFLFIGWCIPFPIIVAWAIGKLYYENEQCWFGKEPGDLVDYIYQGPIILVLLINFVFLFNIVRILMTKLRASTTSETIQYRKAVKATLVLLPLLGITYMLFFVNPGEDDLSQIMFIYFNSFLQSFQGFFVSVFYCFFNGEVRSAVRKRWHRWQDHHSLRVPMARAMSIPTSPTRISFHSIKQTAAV
Method: The affinities of test peptides for CRFR1 and CRFR2 stably expressed in CHO cells were determined by competitive displacement of ^125I-(Nle^21, Tyr^32) ovine CRF (for CRFR1) or of [^125I-Tyr^o-]Ucn (for CRFR2) as described.

[1] = system: cultured rat pituitary cells; experiment: In vitro stimulation of ACTH and β-endorphin secretion by cultured rat pituitary cells; format: cell-based
Method: (§1) In vivo testing is carried out using the general procedure set forth in C.

[2] = In vivo lowering of blood pressure on peripheral administration; conditions: administered peripherally
Method: as §1

CRFR2 = CRFR2 (Mus musculus, UniProt Q60748); conditions: Ruhmann et al., P.N.A.S. 95, 15264-15269 (1998); cited from earlier work
Sequence of CRFR2 (Q60748 27-431 isoform Q60748-2 limits assumed): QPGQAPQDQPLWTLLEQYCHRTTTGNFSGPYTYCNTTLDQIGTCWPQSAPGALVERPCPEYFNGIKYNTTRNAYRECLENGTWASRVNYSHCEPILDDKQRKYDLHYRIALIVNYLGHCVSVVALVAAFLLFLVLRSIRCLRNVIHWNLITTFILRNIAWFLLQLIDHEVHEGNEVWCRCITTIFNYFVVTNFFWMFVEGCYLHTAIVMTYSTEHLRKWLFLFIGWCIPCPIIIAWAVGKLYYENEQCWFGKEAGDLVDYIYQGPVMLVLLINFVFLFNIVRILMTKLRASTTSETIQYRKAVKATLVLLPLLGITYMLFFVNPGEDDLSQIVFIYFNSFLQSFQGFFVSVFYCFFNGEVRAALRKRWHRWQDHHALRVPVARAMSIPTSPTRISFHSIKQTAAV

| Substance | binding to CRFR1 (in words) (human CRFR1) | binding to CRFR2 (in words) (human CRFR2) | stimulation of the secretion of ACTH and β-END-LI [1] | lowering of blood pressure [2] | antagonism for CRFR2 compared with the previously best reported compound (CRFR2) |
| --- | --- | --- | --- | --- | --- |
| (cyclo 31-34)[Ac-Pro^4, D-Phe^12, Nle^21,38, Glu^31, Lys^34]-oCRF(4-41) [Example 2] | bind strongly | poorly | strongly stimulates | very significant lowering of blood pressure | – |
| (cyclo 31-34)[Ac-Pro^4, D-Phe^12, Nle^21,38, Glu^31, Lys^34]-porcine CRF(4-41) [Example 3 C] | binds strongly | only very weakly | stimulates | very significant lowering of blood pressure | – |
| [D-Phe^11, His^12]-sauvagine(11-40) | – | – | – | – | close to equal antagonism |
